Source: PubChem BioAssay (NCI)
Where “and” joins values, the source holds several entries; their conditions need not be identical. Equal entries are not always repeated.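 Test compounds were applied to cells in 96-well plates for 48 hours at 5 doses. The concentration for 50% growth inhibition is given as GI50. The concentration for full growth arrest is given as TGI.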

How the values were obtained:
Experiment in all cases: NCI anticancer screen, dose series, 48 h
A498 renal = test system: A498 renal
KM12 colon = test system: KM12 colon
MOLT-4 leukemia = test system: MOLT-4 leukemia
NCI/ADR-RES ovarian = test system: NCI/ADR-RES ovarian
SK-OV-3 ovarian = test system: SK-OV-3 ovarian
PC-3 prostate = test system: PC-3 prostate
MDA-N = test system: MDA-N
ACHN renal = test system: ACHN renal
RXF 393 renal = test system: RXF 393 renal
K-562 leukemia = test system: K-562 leukemia
EKVX NSCLC = test system: EKVX NSCLC

Structure (SMILES)	TGI (A498 renal) [µM]	TGI (KM12 colon)	TGI (MOLT-4 leukemia) [µM]	TGI (NCI/ADR-RES ovarian) [µM]	TGI (SK-OV-3 ovarian)	TGI (PC-3 prostate) [µM]	TGI (MDA-N)	TGI (ACHN renal)	TGI (RXF 393 renal)	TGI (K-562 leukemia) [µM]	TGI (EKVX NSCLC) [µM]	GI50 (A498 renal) [µM]	GI50 (KM12 colon) [µM]	GI50 (MOLT-4 leukemia) [µM]	GI50 (NCI/ADR-RES ovarian) [µM]	GI50 (SK-OV-3 ovarian) [µM]	GI50 (PC-3 prostate) [µM]	GI50 (ACHN renal)	GI50 (EKVX NSCLC)	GI50 (K-562 leukemia) [µM]
CC(C)C(C/C=C1/CC(CO)(COC(=O)CC(C(C)C)C(C)C)OC1=O)C(C)C (stereo not drawn)	11	21.6 µM	32.7	31.6	30.5 µM	20.2	29.6 µM	18.2 µM	26 µM	> 36.3	19.4									
COc1cccc2cc(C(N)=O)c(=N)oc12	> 100	> 100 µM	> 100	> 100	> 100 µM	> 100	> 100 µM	> 100 µM	> 100 µM	> 100	> 100									
COc1cc(N=NN(C)C)c(C(C)c2c3cc(OC)c(OC)cc3cc[n+]2C)cc1OC (stereo not drawn)	> 100	54.6 µM	> 100	> 100	> 100 µM	> 100	> 100 µM	> 100 µM	> 100 µM	> 100	> 100									
C=C=C(C)[Si](C)(C)C	> 100	> 100 µM	> 100	> 100	> 100 µM	> 100	> 100 µM	> 100 µM	> 100 µM	> 100										
COc1cc(OC)c2c(c1OC)OCC(Cc1ccc(O)cc1)C2=O (stereo not drawn)	> 25	> 25 µM	> 25	> 25	> 25 µM	> 25	> 25 µM	> 25 µM	> 25 µM	> 25										
CC(=O)O[C@H]1CC[C@]2(C)[C@H]3CC[C@@H]4[C@H]5[C@H](C(C)C)CC[C@]5(C(=O)OCC(CO)(CO)N=C(N)N)CC[C@@]4(C)[C@]3(C)CC[C@H]2C1(C)C	3.67	3.36 µM	4.83	5.17	3.96 µM	3.09		3.26 µM			3.53	1.86	1.75	2.1	2.23	2	1.59	1.8 µM	1.8 µM	
CN(C)CCn1c2ccccc2c2nc3cc4ccccc4cc3nc21	8.11	16.8 µM	4.1		23.4 µM			11.1 µM	24.4 µM	10.9	31.8									
O=C1c2ccccc2CC12Cc1cc3c(cc1C2=O)CCC3 (stereo not drawn)	> 100		> 100	> 100	> 100 µM	> 100	> 100 µM	> 100 µM	> 100 µM	> 100	> 100									
COc1ccc(C2SCC(=O)N2c2ccc(-c3ccc(-n4c(-c5ccccc5)nc5ccccc5c4=O)cc3)cc2)cc1 (stereo not drawn)	> 100	79.8 µM	> 100	> 100	> 100 µM	> 100	> 100 µM	> 100 µM		> 100	> 100									
CN(C)CCNc1ccc([N+](=O)[O-])c2nc3ccccc3c(N)c12		1.75 µM	4.74	2.45	1.33 µM	2.87	2.09 µM	3.51 µM	4.32 µM	5.35	5.4									
C/C(=N\Nc1ccc([N+](=O)[O-])cc1[N+](=O)[O-])c1ccc2ccccc2n1		> 100 µM	> 100	> 100	> 100 µM	> 100	> 100 µM	> 100 µM	> 100 µM	> 100	> 100									
N#CCC(=O)Nn1c(CC#N)nnc1Cc1ccccc1		> 100 µM	> 100	> 100		> 100	> 100 µM	> 100 µM	> 100 µM	> 100										
CCOc1ccc2c(c1)/C(=C(\C(Cl)=C(Cl)Cl)[N+](=O)[O-])N2	> 100	> 100 µM	> 100	> 100	> 100 µM	> 100	> 100 µM	> 100 µM		> 100	> 100									
COc1cc(/C=C/C(C)=O)ccc1OP(=O)(O)O	> 100	> 100 µM	> 100		> 100 µM	> 100	> 100 µM	> 100 µM	> 100 µM		> 100									
Cc1nn(C(=O)c2ccc(Cl)cc2)c2c1C(c1ccc([N+](=O)[O-])cc1)SC(N)=N2 (stereo not drawn)		> 10 µM	> 10	> 10	> 10 µM	> 10	> 10 µM	> 10 µM	> 10 µM	> 10	> 10									
Cc1ccc(C(=O)C(C)N)cc1 (stereo not drawn)	> 100	> 100 µM	> 100		> 100 µM			> 100 µM	> 100 µM	> 100	> 100									
CC1C(c2ccc3c(c2)OCO3)c2cc3c(cc2OC1N1CCCC1)OCO3 (stereo not drawn)		> 100 µM	69.9	87.7		> 100	52.3 µM	> 100 µM		61.4	> 100									
COc1cc([C@@H]2c3cc4c(cc3[C@@H](NCCNCCO)[C@H]3COC(=O)[C@H]23)OCO4)cc(OC)c1O	19.9	> 40.2 µM and 17.5 µM		> 100	12.4 µM and 8.25 µM	> 100	21.4 µM and 28.8 µM	8.68 µM and 21.2 µM	8.18 µM and 4.94 µM	> 100	> 100							0.856 µM and 2.43 µM	5.36 µM and 13 µM	1.45
O=C(/C=C/c1ccc(O)c(O)c1)OCCc1cccc2ccccc12	24.8	23.4 µM	12.3	29.4		16.3	5.26 µM	13.4 µM	25.1 µM	9.08										
O=C1C2C=CC1C1C(=O)OC(=O)C21 (stereo not drawn)	> 100	> 100 µM	> 100	> 100	> 100 µM	> 100	> 100 µM	> 100 µM		> 100	> 100									
O=C(O)CSCC(=O)Nc1ccc2cccc3c2c1CC3	> 100	> 100 µM	> 100	> 100		> 100	> 100 µM	> 100 µM	> 100 µM	> 100	> 100									
CC(=O)OC12c3ccccc3C1CCCCCC21OCCCO1 (stereo not drawn)	> 100	> 100 µM	> 100		> 100 µM			> 100 µM	> 100 µM	> 100										

Structure (SMILES)	TGI (A498 renal) [µM]	TGI (KM12 colon)	TGI (MOLT-4 leukemia) [µM]	TGI (NCI/ADR-RES ovarian) [µM]	TGI (SK-OV-3 ovarian)	TGI (PC-3 prostate) [µM]	TGI (MDA-N)	TGI (ACHN renal)	TGI (RXF 393 renal)	TGI (K-562 leukemia) [µM]	TGI (EKVX NSCLC) [µM]	GI50 (A498 renal) [µM]	GI50 (KM12 colon) [µM]	GI50 (MOLT-4 leukemia) [µM]	GI50 (NCI/ADR-RES ovarian) [µM]	GI50 (SK-OV-3 ovarian) [µM]	GI50 (PC-3 prostate) [µM]	GI50 (ACHN renal)	GI50 (EKVX NSCLC)	GI50 (K-562 leukemia) [µM]
N=C(N)SCCc1cn2ccccc2n1		> 100 µM	> 100					> 100 µM		> 100	> 100									
COc1ccc(/C=C2\CSC/C(=C\c3ccc(OC)c(OC)c3OC)C2=O)c(OC)c1OC		> 100 µM		> 100	> 100 µM	> 100	> 100 µM	52.9 µM	53.7 µM	> 100	> 100									
CCOc1ccccc1/C=C1\NC(=O)N(/C=C2\C(=O)Oc3ccccc3C2=O)C1=O		> 100 µM	64.3	> 100	> 100 µM	> 100	> 100 µM	> 100 µM	> 100 µM		> 100									
CCSC1=N/C(=C\c2ccccc2O)C(Nc2ccc(C)cc2)=N1	> 100	> 100 µM	> 100	> 100	> 100 µM	> 100		> 100 µM	> 100 µM	> 100	> 100									
O=C1c2ccccc2-c2nc(-c3cccnc3)cc3c2c1nc1ccccc13			> 100	> 100	> 100 µM	> 100		> 100 µM		> 100	> 100									
COC(OC)c1cccc2c1C1(O)CCC3(CC21)OCCCCO3 (stereo not drawn)	> 100	> 100 µM	> 100		> 100 µM			> 100 µM	> 100 µM	> 100										
c1ccc(C2SCC3=Nc4ccccc4CN32)cc1 (stereo not drawn)	> 100	> 100 µM	> 100	48	> 100 µM	> 100	> 100 µM		38.9 µM	> 100										
Cc1csc2nc(-c3ccc([N+](=O)[O-])cc3)c(/C=N/N=C(N)N)n12	3.46	3.49 µM		> 50.8	3.11 µM	3.25	3.51 µM	2.71 µM	3.45 µM		2.73									
COc1cc(-c2[nH]ccc2Cl)oc1C1=C2N=C3C=C2C(C(C)C)C1CCCCCCCC3 (stereo not drawn)	5.31	2.83 µM	1.74		3.77 µM	1.37	1.75 µM	3.12 µM	2.42 µM	1.85	3.51									
C=C(C=O)c1c2c(nc3ccccc13)C(=O)c1ccccc1C2=O	3.76	2.71 µM	0.997		12.8 µM	10.6		1.7 µM		> 22.5	3.61									
Cc1cccc(Nc2cn(COCc3ccccc3)c(=O)[nH]c2=O)c1	> 100	> 100 µM	> 100	90		> 100	> 100 µM	> 100 µM	> 100 µM	> 100	> 100									
CC[C@@]1(O)C(=O)OCc2c1cc1n(c2=O)Cc2c-1nc1ccccc1c2CC[Si](C)(C)C	0.315			> 100	14 µM	> 56.9	> 100 µM		0.371 µM	> 100	> 100									
O=C(N/N=C1\CCc2ccccc2C1)N/N=C1\CCc2ccccc2C1		> 10 µM	> 10	> 10		> 10	> 10 µM	> 10 µM	> 10 µM	> 10	> 10									
CN1C(c2ccccc2)=CC(=O)C(O)=C(c2ccccc2)S1(=O)=O		> 100 µM	> 100	> 100	> 100 µM	> 100	> 100 µM	> 100 µM	> 100 µM	> 100	> 100									
COC(=O)C1=Nc2c(C)nn(-c3ccccc3)c2N=C(c2ccc(C)cc2)C1		> 10 µM	> 10	> 10	> 10 µM	> 10	> 10 µM	> 10 µM		> 10										
CC(=O)[O-].CC(=O)[O-].O=C(N/N=C/c1cc(Cl)cc(Cl)c1[OH2+])c1ccncc1.[Co+2]	> 100	> 100 µM	> 100		> 100 µM			> 100 µM	> 100 µM	> 100	> 100									
CC(=O)Nc1ccc(CNc2cc(=O)[nH]c(=O)[nH]2)cc1		> 100 µM	> 100	> 100	> 100 µM	> 100	> 100 µM	> 100 µM	> 100 µM	> 100	> 100									
O=C1OCC(C#Cc2ccccc2)=C1Cl	38	12.1 µM	46.1	13.8	> 100 µM	5.67		6.56 µM		14.6	6.17	12	2.65	14.3	3.32	37.7	1.99	2.49 µM	1.91 µM	1.86
CC1CCCC2=C1C(c1ccc(Cl)cc1)n1c(s/c(=C\c3ccc(Cl)cc3)c1=O)=N2 (stereo not drawn)	> 100	> 100 µM			> 100 µM	> 100	> 100 µM	> 100 µM	> 100 µM	> 100	> 100									
CC(=O)Nc1ncc(Sc2ccccc2C(=O)O)s1	> 100	> 100 µM	> 100	> 100		> 100	> 100 µM	> 100 µM	> 100 µM	> 100	> 100									
O=C(c1cc(Cl)cc(Cl)c1)N(C(=S)OC12CC3CC(CC(C3)C1)C2)c1ccccc1	> 100	> 100 µM		> 100	> 100 µM	> 100	> 100 µM	> 100 µM	> 100 µM		69.1									
CC(NS(C)(=O)=O)c1ccccc1 (stereo not drawn)		> 100 µM	> 100	> 100		> 100	> 100 µM		> 100 µM	> 100										
